Experimental data published in ChEMBL document CHEMBL5375983, “Discovery of YSR734: A Covalent HDAC Inhibitor with Cellular Activity in Acute Myeloid Leukemia and Duchenne Muscular Dystrophy” (J Med Chem, 2023).
The source made the active and inactive calls. The calls are words filed in the database; no cut-off is given here.

How the values were obtained:
Histone deacetylase 1 [1] = target: T1, Histone deacetylase 1 (Homo sapiens, UniProt Q13547); assay: Inhibition of HDAC1 (unknown origin) using 6-carboxyfluorescein peptide as substrate preincubated with compound followed by substrate addition by electrophoretic mobility shift assay
T1 sequence (Q13547 whole entry): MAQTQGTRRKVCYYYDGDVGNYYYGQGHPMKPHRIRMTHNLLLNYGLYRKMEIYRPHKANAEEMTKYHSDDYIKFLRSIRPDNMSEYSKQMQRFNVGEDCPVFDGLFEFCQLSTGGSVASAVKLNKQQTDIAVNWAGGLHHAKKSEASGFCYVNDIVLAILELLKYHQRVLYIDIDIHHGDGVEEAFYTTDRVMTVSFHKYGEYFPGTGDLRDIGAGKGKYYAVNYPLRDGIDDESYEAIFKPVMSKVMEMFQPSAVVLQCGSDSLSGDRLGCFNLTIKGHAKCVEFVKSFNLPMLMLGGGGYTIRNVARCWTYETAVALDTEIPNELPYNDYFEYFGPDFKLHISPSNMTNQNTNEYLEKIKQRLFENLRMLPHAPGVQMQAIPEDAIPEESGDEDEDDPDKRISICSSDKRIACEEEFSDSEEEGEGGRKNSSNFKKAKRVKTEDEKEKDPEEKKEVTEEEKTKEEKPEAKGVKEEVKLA

MV4-11 [2] = assay: Induction of apoptosis in human MV4-11 cells assessed as healthy cells at 4 uM measured after 6 hrs by annexin V-FITC/PI staining based FACS assay (reference value: 63.50%); format: functional
Histone deacetylase 8 = target: T2, Histone deacetylase 8 (Homo sapiens, UniProt Q9BY41); assay: Inhibition of full length recombinant human HDAC8 expressed in Sf9 cells using 6-carboxyfluorescein peptide as substrate preincubated with compound followed by substrate addition and measured after 3 hrs by electrophoretic mobility shift assay
T2 sequence (Q9BY41 whole entry): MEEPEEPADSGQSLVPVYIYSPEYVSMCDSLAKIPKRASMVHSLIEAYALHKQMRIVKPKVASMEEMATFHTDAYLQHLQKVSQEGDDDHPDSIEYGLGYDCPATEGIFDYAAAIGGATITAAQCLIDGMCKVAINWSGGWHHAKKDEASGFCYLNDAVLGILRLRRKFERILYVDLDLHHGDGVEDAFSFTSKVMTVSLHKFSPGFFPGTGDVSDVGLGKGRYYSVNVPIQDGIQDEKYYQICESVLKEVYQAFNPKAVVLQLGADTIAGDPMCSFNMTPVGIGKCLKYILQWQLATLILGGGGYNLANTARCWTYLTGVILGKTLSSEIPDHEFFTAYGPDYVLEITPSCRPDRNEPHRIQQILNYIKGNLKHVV

Histone deacetylase 9 = Histone deacetylase 9 (Homo sapiens, UniProt Q9UKV0); assay: Inhibition of HDAC9 (unknown origin) using 6-carboxyfluorescein peptide as substrate preincubated with compound for 6 hrs followed by substrate addition by electrophoretic mobility shift assay
Histone deacetylase 9, sequence (Q9UKV0 whole entry): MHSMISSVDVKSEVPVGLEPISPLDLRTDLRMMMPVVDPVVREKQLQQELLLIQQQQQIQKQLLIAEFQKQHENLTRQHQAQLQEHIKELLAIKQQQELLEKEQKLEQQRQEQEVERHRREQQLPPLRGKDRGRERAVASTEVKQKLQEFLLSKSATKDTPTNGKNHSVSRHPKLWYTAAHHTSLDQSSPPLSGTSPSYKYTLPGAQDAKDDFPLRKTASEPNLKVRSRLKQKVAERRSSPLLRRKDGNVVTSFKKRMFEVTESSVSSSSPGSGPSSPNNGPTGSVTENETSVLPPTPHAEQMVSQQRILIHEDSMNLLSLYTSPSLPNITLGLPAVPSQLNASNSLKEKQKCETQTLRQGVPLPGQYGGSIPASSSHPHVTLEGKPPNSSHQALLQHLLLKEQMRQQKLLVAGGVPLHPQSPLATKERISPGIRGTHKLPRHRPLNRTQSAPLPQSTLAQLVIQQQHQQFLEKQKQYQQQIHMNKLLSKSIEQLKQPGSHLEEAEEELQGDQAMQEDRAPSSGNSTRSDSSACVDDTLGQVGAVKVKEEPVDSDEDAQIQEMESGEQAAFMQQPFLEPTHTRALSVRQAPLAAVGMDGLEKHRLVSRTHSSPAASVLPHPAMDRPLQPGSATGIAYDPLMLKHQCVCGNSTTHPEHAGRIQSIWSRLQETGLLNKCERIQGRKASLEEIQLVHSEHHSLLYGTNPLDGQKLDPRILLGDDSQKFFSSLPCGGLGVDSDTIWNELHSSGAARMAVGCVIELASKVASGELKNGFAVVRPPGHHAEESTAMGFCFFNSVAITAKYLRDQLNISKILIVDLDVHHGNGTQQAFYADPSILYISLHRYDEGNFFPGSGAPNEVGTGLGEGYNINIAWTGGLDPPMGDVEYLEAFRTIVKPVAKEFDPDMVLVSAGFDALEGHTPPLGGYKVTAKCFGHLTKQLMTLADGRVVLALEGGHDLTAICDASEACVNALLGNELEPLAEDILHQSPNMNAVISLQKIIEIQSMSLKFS

[3] = target: Histone deacetylase 2 (Mus musculus) (UniProt P70288); assay: Inhibition of HDAC2 in mouse C2C12 cells at 5 uM incubated for 72 hrs by immunofluorescence analysis; format: cell-based
Histone deacetylase 2 (Mus musculus), sequence (P70288 whole entry, the tested form may be a part): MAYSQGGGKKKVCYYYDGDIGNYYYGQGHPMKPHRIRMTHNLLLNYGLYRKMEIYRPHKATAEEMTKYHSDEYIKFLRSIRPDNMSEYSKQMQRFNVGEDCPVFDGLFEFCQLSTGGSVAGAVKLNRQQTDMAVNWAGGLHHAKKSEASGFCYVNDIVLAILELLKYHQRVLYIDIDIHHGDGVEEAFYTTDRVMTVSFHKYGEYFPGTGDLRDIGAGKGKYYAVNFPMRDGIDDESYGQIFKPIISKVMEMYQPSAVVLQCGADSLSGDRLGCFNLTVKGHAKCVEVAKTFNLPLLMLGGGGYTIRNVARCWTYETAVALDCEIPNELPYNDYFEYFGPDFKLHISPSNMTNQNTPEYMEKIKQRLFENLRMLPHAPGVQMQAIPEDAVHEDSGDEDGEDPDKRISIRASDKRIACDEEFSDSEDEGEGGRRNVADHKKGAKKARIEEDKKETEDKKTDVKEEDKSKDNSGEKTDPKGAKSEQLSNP

Histone deacetylase 2 [4] = target: T3, Histone deacetylase 2 (Homo sapiens, UniProt Q92769); assay: Binding affinity to recombinant full length HDAC2 catalytic domain Cys274 (unknown origin) assessed as formation of single covalent adduct at 50 uM incubated for 2 hrs by trypsin-digest protein mapping analysis
T3 sequence (Q92769 whole entry, the tested form may be a part): as the sequence (P70288 whole entry, the tested form may be a part) above, with A289V, P477T, A480T counted along it

MV4-11 [5] = assay: Induction of apoptosis in human MV4-11 cells assessed as late apoptotic cells at 1 uM measured after 6 hrs by annexin V-FITC/PI staining based FACS assay (reference value: 16.21%); format: functional
Histone deacetylase 1 [6] = target: T1, Histone deacetylase 1; assay: Inhibition of HDAC1 (unknown origin) using 6-carboxyfluorescein peptide as substrate preincubated with compound for 6 hrs followed by substrate addition by electrophoretic mobility shift assay
[7] = target: T4, Protein deacetylase HDAC6 (Homo sapiens, UniProt Q9UBN7); assay: Inhibition of full length recombinant human HDAC6 expressed in Sf9 cells using 6-carboxyfluorescein peptide as substrate preincubated with compound for 6 hrs followed by substrate addition and measured after 5 hrs by electrophoretic mobility shift assay
T4 sequence (Q9UBN7 whole entry): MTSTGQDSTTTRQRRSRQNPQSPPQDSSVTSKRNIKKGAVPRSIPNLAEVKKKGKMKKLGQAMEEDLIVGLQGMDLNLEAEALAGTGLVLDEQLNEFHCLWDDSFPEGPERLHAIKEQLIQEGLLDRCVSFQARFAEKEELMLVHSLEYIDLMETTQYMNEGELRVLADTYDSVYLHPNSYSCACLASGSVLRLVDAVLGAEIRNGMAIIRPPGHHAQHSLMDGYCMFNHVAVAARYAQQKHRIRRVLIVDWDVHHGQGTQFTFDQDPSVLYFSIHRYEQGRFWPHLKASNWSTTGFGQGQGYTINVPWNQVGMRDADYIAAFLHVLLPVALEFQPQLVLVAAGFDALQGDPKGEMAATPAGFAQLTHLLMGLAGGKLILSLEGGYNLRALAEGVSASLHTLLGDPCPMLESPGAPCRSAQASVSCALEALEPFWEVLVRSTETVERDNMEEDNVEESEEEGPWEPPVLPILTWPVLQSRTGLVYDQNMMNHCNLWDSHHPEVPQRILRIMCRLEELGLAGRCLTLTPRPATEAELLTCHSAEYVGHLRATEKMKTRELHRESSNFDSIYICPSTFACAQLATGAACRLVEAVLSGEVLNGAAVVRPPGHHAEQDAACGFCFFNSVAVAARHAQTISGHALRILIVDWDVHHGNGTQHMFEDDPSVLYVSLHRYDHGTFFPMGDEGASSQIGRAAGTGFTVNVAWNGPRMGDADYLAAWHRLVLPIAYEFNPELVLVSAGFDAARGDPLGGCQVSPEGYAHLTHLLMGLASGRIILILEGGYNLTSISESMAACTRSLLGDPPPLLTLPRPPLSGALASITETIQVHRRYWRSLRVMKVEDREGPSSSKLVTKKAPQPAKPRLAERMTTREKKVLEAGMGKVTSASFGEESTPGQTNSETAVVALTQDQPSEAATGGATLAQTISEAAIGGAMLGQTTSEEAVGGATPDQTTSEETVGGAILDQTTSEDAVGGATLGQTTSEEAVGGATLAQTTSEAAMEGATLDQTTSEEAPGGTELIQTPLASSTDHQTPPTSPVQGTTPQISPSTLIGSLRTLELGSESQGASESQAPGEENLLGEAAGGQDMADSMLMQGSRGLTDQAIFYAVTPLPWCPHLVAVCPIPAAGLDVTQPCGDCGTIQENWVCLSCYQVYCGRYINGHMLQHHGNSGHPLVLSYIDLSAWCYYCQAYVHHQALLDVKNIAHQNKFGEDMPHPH

Histone deacetylase 2 [8] = target: T3, Histone deacetylase 2; assay: Inhibition of HDAC2 (unknown origin) using 6-carboxyfluorescein peptide as substrate preincubated with compound followed by substrate addition by electrophoretic mobility shift assay
Histone deacetylase 2 [9] = target: T3, Histone deacetylase 2; assay: Inhibition of HDAC2 (unknown origin) using 6-carboxyfluorescein peptide as substrate preincubated with compound for 2 hrs followed by substrate addition by electrophoretic mobility shift assay
Histone deacetylase 5 = Histone deacetylase 5 (Homo sapiens, UniProt Q9UQL6); assay: Inhibition of HDAC5 (unknown origin) using 6-carboxyfluorescein peptide as substrate preincubated with compound for 6 hrs followed by substrate addition by electrophoretic mobility shift assay
Histone deacetylase 5, sequence (Q9UQL6 whole entry): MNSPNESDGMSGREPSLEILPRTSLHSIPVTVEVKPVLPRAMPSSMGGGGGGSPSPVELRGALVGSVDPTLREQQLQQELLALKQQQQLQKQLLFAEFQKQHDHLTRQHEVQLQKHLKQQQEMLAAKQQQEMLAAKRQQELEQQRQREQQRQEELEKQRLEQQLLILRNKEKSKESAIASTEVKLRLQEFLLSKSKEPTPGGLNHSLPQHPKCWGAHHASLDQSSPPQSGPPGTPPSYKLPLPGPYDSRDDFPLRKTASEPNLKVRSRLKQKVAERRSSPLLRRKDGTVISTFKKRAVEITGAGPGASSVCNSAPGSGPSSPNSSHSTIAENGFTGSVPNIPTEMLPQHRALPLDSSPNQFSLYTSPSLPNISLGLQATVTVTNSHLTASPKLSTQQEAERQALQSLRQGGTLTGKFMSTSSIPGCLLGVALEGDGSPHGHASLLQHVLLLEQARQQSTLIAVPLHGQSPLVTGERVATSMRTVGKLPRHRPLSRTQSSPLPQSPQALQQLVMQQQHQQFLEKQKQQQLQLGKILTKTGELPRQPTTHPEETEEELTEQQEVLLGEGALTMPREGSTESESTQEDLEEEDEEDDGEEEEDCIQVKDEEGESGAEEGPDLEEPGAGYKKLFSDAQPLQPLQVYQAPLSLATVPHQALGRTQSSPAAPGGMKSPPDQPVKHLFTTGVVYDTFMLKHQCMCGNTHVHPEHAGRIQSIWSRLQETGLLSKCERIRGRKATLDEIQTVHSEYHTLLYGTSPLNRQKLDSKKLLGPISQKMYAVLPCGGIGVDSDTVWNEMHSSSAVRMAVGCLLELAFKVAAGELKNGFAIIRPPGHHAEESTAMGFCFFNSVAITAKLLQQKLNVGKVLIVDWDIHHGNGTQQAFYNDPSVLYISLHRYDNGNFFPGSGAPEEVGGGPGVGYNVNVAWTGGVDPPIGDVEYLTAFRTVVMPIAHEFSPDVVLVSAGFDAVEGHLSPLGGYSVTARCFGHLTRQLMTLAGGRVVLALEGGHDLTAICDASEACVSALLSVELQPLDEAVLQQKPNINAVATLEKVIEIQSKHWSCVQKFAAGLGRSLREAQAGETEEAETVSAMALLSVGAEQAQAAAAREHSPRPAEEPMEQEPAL

IC50 (Histone deacetylase 1 [1]): 242 nM
IC50 (Histone deacetylase 8): > 10000 nM
IC50 (Histone deacetylase 9): > 10000 nM
inhibition [3]: Active
Activity (Histone deacetylase 2 [4]): Active
IC50 (Histone deacetylase 1 [6]): 109 nM
IC50 [7]: > 10000 nM
IC50 (Histone deacetylase 2 [8]): 808 nM
IC50 (Histone deacetylase 2 [9]): 327 nM
IC50 (Histone deacetylase 5): > 10000 nM
SMILES: Nc1ccccc1NC(=O)c1ccc(CNC(=O)OC2CCN(S(=O)(=O)c3c(F)c(F)c(F)c(F)c3F)CC2)cc1
Activity (MV4-11 [2]): 4.57%
Activity (MV4-11 [5]): 48.31%
